Experimental findings from ChEMBL document CHEMBL5291721, “A preclinical secondary pharmacology resource illuminates target-adverse drug reaction associations of marketed drugs” (Nat Commun, 2023) are described below.

Values joined by “and” are separate entries in the source; they are usually repeats but may differ in a detail not shown here. Identical values can stand only once.

For one assay, the target named is T1, Endothelin-1 receptor (Homo sapiens, UniProt P25101).
T1 sequence (P25101 whole entry): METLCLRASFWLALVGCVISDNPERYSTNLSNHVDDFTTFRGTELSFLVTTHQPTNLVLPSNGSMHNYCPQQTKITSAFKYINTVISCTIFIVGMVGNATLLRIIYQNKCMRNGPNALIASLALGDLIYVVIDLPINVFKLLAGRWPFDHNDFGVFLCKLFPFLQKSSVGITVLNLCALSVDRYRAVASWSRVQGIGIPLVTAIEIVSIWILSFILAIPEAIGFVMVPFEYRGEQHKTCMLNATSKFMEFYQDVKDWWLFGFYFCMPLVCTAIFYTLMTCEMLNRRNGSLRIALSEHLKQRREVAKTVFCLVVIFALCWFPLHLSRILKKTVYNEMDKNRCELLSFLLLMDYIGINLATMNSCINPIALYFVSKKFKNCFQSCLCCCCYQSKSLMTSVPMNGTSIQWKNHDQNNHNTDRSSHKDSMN

For the next assay, the target named is Mu-type opioid receptor (Homo sapiens, UniProt P35372). Nature of the assay: biochemical. The assay is classed as functional.
The target in assay [1] is T2, Muscarinic acetylcholine receptor M1 (Homo sapiens, UniProt P11229).
T2 sequence (P11229 whole entry): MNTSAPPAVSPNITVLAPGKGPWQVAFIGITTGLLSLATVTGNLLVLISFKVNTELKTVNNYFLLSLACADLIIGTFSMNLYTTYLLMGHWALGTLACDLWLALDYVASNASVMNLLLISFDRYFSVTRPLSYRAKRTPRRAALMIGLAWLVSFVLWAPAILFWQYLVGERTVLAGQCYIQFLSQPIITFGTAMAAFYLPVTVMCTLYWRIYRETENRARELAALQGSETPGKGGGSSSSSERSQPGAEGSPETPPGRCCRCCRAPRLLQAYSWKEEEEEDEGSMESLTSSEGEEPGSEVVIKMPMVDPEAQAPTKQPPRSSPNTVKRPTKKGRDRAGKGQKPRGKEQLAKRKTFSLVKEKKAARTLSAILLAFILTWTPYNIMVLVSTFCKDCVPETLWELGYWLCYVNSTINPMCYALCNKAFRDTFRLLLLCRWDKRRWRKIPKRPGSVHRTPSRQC
Format: functional.

The next assay concerns the target Cannabinoid receptor 1 (Homo sapiens, UniProt P21554). Format: functional, cell-based.
The target of assay [2] is 5-hydroxytryptamine receptor 2A (Homo sapiens, UniProt P28223). The assay is classed as functional, cell-based.
The target of assay [3] is Gamma-aminobutyric acid receptor subunit alpha-1 (Rattus norvegicus, UniProt P62813). Format: functional.
For assay [4], the target named is T3, Alpha-2B adrenergic receptor (Homo sapiens, UniProt P18089).
T3 sequence (P18089 whole entry): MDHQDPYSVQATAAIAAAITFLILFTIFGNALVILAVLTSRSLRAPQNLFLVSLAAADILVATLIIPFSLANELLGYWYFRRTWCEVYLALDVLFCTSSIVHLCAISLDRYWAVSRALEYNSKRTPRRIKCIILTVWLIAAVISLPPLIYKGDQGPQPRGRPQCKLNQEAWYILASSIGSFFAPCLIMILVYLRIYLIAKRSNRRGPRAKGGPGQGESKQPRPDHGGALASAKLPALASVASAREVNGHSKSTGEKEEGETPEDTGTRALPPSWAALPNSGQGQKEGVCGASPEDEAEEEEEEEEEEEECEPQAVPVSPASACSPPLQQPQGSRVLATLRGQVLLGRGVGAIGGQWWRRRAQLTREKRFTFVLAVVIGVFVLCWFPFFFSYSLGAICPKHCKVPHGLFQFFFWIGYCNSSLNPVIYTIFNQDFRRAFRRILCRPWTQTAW

Assay [5] deals with Muscarinic acetylcholine receptor M3 (Homo sapiens, UniProt P20309).
Assay [6] deals with T4, 5-hydroxytryptamine receptor 1A (Homo sapiens, UniProt P08908).
T4 sequence (P08908 whole entry): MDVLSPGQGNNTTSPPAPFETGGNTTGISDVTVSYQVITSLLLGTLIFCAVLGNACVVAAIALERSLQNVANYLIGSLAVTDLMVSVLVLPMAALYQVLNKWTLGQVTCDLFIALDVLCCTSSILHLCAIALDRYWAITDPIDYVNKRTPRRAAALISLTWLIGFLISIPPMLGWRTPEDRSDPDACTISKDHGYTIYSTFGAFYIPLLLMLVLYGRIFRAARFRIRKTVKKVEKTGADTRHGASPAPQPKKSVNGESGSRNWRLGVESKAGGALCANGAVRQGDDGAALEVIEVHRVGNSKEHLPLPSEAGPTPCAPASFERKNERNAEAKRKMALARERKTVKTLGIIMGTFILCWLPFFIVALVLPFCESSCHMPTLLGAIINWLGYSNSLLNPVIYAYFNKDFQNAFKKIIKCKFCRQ
Format: functional, cell-based.

Assay [7] has as its target T5, Alpha-1A adrenergic receptor (Homo sapiens, UniProt P35348).
T5 sequence (P35348 whole entry): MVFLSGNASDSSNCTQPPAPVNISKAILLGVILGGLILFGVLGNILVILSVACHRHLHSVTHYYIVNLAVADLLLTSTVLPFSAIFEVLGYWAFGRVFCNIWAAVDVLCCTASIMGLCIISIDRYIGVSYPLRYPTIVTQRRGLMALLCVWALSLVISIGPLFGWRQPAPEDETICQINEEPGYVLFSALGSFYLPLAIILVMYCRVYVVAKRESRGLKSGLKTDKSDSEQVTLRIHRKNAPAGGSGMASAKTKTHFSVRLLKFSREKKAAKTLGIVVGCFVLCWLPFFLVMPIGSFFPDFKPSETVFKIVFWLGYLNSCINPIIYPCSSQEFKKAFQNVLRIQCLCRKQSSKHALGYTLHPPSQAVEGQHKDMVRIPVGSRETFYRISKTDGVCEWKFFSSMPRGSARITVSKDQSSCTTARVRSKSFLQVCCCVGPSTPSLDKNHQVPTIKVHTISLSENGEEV
The assay is classed as functional, cell-based.

Assay [8] deals with Sodium-dependent noradrenaline transporter (Homo sapiens, UniProt P23975).
The target in assay [9] is Prostaglandin G/H synthase 1 (Homo sapiens, UniProt P23219). The assay is classed as functional.
Further: assay procedure not described here.

Mu-type opioid receptor, sequence (P35372 whole entry): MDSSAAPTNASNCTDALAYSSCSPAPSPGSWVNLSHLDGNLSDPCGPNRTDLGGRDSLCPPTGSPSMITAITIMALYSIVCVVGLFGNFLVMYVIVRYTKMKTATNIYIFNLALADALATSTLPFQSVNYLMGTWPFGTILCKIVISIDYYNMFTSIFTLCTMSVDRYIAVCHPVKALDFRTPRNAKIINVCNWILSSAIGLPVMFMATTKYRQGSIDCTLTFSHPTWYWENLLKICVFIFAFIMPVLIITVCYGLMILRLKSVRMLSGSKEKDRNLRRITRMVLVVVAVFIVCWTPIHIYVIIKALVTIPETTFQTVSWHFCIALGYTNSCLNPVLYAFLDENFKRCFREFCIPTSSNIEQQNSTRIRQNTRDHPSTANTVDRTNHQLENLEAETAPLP
5-hydroxytryptamine receptor 2A, sequence (P28223 whole entry): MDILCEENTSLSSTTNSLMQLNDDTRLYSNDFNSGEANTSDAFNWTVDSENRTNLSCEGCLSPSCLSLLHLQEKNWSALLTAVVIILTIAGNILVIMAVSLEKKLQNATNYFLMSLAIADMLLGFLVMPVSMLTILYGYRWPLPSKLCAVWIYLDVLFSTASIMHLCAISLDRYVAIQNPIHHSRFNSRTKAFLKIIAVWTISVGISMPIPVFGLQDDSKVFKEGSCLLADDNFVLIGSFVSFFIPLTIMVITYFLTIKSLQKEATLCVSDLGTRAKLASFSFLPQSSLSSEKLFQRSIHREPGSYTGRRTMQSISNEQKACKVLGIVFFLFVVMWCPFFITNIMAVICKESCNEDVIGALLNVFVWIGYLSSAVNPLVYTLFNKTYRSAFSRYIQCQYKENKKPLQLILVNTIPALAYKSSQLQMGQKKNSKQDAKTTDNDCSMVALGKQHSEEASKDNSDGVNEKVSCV
Sodium-dependent noradrenaline transporter, sequence (P23975 whole entry): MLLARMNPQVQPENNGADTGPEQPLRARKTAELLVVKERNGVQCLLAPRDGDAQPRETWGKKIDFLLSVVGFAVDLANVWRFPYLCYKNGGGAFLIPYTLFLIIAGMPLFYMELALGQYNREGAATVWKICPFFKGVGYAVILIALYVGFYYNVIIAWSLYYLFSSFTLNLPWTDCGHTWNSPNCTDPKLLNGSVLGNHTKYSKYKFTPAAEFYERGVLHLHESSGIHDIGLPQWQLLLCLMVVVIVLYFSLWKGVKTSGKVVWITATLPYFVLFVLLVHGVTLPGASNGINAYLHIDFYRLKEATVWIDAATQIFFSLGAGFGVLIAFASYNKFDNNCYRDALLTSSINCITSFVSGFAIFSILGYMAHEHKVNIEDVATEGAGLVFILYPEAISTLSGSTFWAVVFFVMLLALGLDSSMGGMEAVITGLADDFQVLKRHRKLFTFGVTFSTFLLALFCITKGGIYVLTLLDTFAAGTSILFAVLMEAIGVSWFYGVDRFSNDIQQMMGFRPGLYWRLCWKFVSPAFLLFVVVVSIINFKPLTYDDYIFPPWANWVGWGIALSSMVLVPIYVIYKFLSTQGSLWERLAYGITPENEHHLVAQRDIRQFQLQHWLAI
Muscarinic acetylcholine receptor M3, sequence (P20309 whole entry): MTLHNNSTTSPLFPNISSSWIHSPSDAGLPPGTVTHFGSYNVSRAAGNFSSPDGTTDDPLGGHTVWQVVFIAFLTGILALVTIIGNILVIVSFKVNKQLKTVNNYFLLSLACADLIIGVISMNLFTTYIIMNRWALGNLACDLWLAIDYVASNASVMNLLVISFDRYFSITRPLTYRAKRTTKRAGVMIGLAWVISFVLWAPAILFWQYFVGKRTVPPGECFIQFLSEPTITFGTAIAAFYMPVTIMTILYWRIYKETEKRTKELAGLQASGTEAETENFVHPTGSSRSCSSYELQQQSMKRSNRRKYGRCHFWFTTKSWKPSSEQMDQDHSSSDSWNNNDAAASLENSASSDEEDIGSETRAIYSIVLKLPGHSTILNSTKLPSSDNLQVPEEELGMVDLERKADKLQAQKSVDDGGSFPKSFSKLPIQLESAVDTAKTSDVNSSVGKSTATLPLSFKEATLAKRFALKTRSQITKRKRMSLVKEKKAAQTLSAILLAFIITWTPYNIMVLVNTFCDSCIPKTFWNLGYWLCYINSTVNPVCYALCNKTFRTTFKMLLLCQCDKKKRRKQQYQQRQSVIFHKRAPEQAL
Cannabinoid receptor 1, sequence (P21554 whole entry): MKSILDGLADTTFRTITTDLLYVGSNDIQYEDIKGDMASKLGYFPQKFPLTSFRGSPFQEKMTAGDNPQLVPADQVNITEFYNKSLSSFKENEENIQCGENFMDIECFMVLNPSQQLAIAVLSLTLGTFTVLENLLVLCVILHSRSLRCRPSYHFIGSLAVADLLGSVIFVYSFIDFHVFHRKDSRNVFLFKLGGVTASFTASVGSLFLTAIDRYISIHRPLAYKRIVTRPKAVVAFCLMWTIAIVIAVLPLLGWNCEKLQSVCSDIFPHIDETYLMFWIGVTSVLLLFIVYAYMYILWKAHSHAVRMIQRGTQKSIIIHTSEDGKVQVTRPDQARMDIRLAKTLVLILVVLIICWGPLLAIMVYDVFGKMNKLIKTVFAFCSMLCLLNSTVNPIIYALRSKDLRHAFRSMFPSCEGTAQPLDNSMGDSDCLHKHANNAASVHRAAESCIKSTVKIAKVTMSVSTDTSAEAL
Gamma-aminobutyric acid receptor subunit alpha-1, sequence (P62813 whole entry): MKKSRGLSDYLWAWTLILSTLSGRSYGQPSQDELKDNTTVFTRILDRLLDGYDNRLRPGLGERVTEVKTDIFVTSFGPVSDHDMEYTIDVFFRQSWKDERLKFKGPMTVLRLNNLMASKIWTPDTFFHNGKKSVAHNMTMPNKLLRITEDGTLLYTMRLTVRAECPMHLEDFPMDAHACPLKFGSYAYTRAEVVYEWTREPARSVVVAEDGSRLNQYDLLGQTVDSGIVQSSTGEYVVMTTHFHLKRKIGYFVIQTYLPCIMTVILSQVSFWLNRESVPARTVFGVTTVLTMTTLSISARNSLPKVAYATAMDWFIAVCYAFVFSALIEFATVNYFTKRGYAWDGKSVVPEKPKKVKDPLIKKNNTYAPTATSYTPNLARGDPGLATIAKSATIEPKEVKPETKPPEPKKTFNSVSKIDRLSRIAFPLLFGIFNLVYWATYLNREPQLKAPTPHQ
Prostaglandin G/H synthase 1, sequence (P23219 whole entry): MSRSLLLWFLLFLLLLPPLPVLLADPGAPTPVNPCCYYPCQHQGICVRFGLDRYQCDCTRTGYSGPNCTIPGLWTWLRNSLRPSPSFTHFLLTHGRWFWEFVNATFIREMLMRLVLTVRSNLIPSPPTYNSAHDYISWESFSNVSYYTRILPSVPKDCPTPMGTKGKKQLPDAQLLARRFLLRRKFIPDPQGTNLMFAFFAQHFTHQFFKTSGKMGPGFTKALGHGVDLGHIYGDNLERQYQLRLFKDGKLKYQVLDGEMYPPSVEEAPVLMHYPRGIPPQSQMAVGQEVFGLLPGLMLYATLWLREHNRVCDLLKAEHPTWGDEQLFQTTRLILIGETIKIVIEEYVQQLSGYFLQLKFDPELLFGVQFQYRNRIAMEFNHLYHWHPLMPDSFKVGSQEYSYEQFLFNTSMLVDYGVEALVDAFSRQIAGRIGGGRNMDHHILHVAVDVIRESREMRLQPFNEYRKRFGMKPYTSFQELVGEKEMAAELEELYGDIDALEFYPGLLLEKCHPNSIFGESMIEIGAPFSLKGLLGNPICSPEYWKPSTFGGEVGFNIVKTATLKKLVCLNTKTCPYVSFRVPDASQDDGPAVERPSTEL

As to `CCC(C)C1(CC)C(=O)NC(=O)NC1=O` (centres undefined) [BUTABARBITAL], the half-maximal activity concentration (AC50) (at Endothelin-1 receptor; on Mu-type opioid receptor; in assay [1]; at Cannabinoid receptor 1; in assay [2]) was more than 30 µM throughout.
With `COc1cc(N)c(Cl)cc1C(=O)NC1CCN(Cc2ccccc2)CC1` [CLEBOPRIDE], the concentration at half-maximal activity (AC50) (commonly the midpoint of the concentration-response curve, whichever way the signal moves) is more than 30 µM at Endothelin-1 receptor; 0.13 µM in assay [3]; 18 µM in assay [4]; more than 30 µM on Mu-type opioid receptor; more than 30 µM in [1]; more than 30 µM at Cannabinoid receptor 1. The half-maximal activity concentration (AC50) in assay [5] and in assay [2] was more than 30 µM throughout.
On to `CC(C)(C)C(=O)OCC(=O)[C@H]1CC[C@H]2[C@@H]3CCC4=CC(=O)CC[C@]4(C)[C@H]3CC[C@]12C` [DESOXYCORTICOSTERONE PIVALATE], for which the AC50 in assay [3] was more than 10 µM; in [4], more than 10 µM; in assay [1] it was more than 10 µM; on Cannabinoid receptor 1 it was more than 30 µM; in assay [5] it was more than 30 µM; in assay [2], more than 10 µM.
With `CCOC(=O)c1cncn1[C@H](C)c1ccccc1` [ETOMIDATE], the AC50 was more than 10 µM in [4]; more than 10 µM in [6]; more than 10 µM in [1]; more than 30 µM on Cannabinoid receptor 1; more than 30 µM in assay [5]; more than 10 µM in assay [2].
As to `CC(C(=O)O)c1ccc(-c2ccccc2)c(F)c1` (centres undefined) [FLURBIPROFEN], the half-maximal activity concentration (AC50) in assay [3] is more than 10 µM; at Mu-type opioid receptor it was more than 30 µM; in assay [7] it was more than 30 µM; in [6], more than 10 µM; in assay [8], more than 30 µM.
For the compound `C[C@]12CC[C@@H]3c4ccc(O)cc4C[C@@H](CCCCCCCCC[S+]([O-])CCCC(F)(F)C(F)(F)F)[C@H]3[C@@H]1CC[C@@H]2O` (some centres undefined) [FULVESTRANT], the AC50 (at Endothelin-1 receptor; in [3]; in [4]; on Mu-type opioid receptor; in assay [1]; on Cannabinoid receptor 1) was more than 30 µM in each case. Further, the half-maximal activity concentration (AC50) in [5] and in assay [2] was more than 30 µM throughout.
For the compound `Cc1cnc(C(=O)NCCc2ccc(S(=O)(=O)NC(=O)NC3CCCCC3)cc2)cn1` [GLIPIZIDE], the half-maximal activity concentration (AC50) at Endothelin-1 receptor was more than 30 µM; in assay [7], more than 3 µM; in [6], more than 10 µM.
With `CCC1(c2ccccc2)CCC(=O)NC1=O` (centres undefined) [GLUTETHIMIDE], the half-maximal activity concentration (AC50) was more than 10 µM in assay [3]; more than 10 µM in [4]; more than 30 µM in [6]; more than 10 µM in [1]; more than 30 µM at Cannabinoid receptor 1; more than 30 µM in [5]. In assay [2], this compound showed a concentration at half-maximal activity (AC50) of more than 30 µM.
With `C[C@H](Cc1ccc(O)c(O)c1)[C@@H](C)Cc1ccc(O)c(O)c1` [MASOPROCOL], the AC50 in [3] is more than 10 µM; in [4], 8.1 µM; in assay [1], > 10 µM and 29 µM and > 30 µM; on Cannabinoid receptor 1 it was more than 30 µM; in assay [5], more than 30 µM; in assay [2], more than 30 µM.
On to `COC(=O)c1ccc(O)cc1` [METHYLPARABEN], for which the AC50 in assay [7] was more than 30 µM; in assay [9] it was more than 1 µM; in assay [8] it was more than 30 µM.
In the case of `Clc1ccc2c(N3CCN(CCCN4CCN(c5ccnc6cc(Cl)ccc56)CC4)CC3)ccnc2c1` [PIPERAQUINE], the half-maximal activity concentration (AC50) is more than 30 µM on Endothelin-1 receptor; more than 30 µM in assay [3]; more than 30 µM in [4]; more than 30 µM on Mu-type opioid receptor; 3.8 µM in assay [1]; more than 30 µM at Cannabinoid receptor 1. The concentration at half-maximal activity (AC50) in [5] and in assay [2] was more than 30 µM throughout.
For `COc1ccc(CN(CCN(C)C)c2ccccn2)cc1` [PYRILAMINE], the AC50 in assay [7], in [9] and in assay [8] was more than 30 µM in each case.
As to `CNCc1ccc(-c2[nH]c3cc(F)cc4c3c2CCNC4=O)cc1` [RUCAPARIB], the AC50 in assay [1] and in assay [2] was more than 10 µM each time.
As to `CC1(C)S[C@@H]2[C@H](NC(=O)[C@H](N)c3ccccc3)C(=O)N2[C@H]1C(=O)OCOC(=O)[C@@H]1N2C(=O)C[C@H]2S(=O)(=O)C1(C)C` [SULTAMICILLIN], the half-maximal activity concentration (AC50) (at Endothelin-1 receptor; in [3]; in assay [4]; at Mu-type opioid receptor; in assay [1]; at Cannabinoid receptor 1) was more than 30 µM throughout. The concentration at half-maximal activity (AC50) in [5] and in assay [2] was more than 30 µM in each case.
As to `CCC(=O)O[C@H]1CC[C@H]2[C@@H]3CCC4=CC(=O)CC[C@]4(C)[C@H]3CC[C@]12C` [TESTOSTERONE PROPIONATE], the concentration at half-maximal activity (AC50) is more than 30 µM in assay [3]; more than 10 µM in assay [4]; more than 10 µM in [6]; more than 10 µM in assay [1]; more than 30 µM at Cannabinoid receptor 1; more than 10 µM in assay [5]. Further, the concentration at half-maximal activity (AC50) in [2] is more than 30 µM.
As for `Cc1cccc(N2CC(CO)OC2=O)c1` (centres undefined) [TOLOXATONE], the AC50 (at Endothelin-1 receptor; in assay [3]; in assay [4]; on Mu-type opioid receptor; in assay [1]; at Cannabinoid receptor 1) was more than 30 µM throughout. Also, the AC50 in assay [5] and in [2] was more than 30 µM each time.
In the case of `CCC(C)C(CC)C(N)=O` (centres undefined) [VALNOCTAMIDE], the AC50 (on Endothelin-1 receptor; in assay [3]; in [4]; at Mu-type opioid receptor; in assay [1]; on Cannabinoid receptor 1) was more than 30 µM in each case. Moreover, the half-maximal activity concentration (AC50) in [5] and in assay [2] was more than 30 µM in each case.
As for `CCOC(=O)C1=C[C@]2(CC)CCCN3CCc4c(n1c1ccccc41)[C@@H]32` [VINPOCETINE], the AC50 at Endothelin-1 receptor was more than 30 µM; in [3] it was more than 30 µM; in assay [4], 2.4 µM; on Mu-type opioid receptor, more than 30 µM; in assay [1] it was more than 30 µM; at Cannabinoid receptor 1, more than 30 µM. Further, the concentration at half-maximal activity (AC50) in assay [5] and in assay [2] was more than 30 µM in each case.
